Reference: ChEMBL document CHEMBL1126603, “Synthesis and pharmacokinetics of a dihydropyridine chemical delivery system for the antiimmunodeficiency virus agent dideoxycytidine” (J Med Chem, 1993)

Test system: MT4
Experiment: Growth inhibition of HIV-1 in human lymphocyte MT-4 cells
Format: functional, cell-based

SMILES: Nc1ccn([C@H]2CC[C@@H](CO)O2)c(=O)n1 (stereo in doubt; form 1) [ZALCITABINE]
- IC50: 1 µM

SMILES: CN1C=CCC(C(=O)OCC2CCC(n3ccc(N)nc3=O)O2)=C1 (centres undefined)
- IC50: 1.2 µM

SMILES: CN1C=CCC(C(=O)Nc2ccn(C3CCC(CO)O3)c(=O)n2)=C1 (centres undefined)
- IC50: 1.2 µM

SMILES: CN1C=CCC(C(=O)Nc2ccn(C3CCC(COC(=O)C4=CN(C)C=CC4)O3)c(=O)n2)=C1 (centres undefined)
- IC50: 1.9 µM
